# Laboratory results published in ChEMBL document CHEMBL3808392, “Design, synthesis and biological evaluation of 5-fluorouracil-derived benzimidazoles as novel type of potential antimicrobial agents” (2016).
# How the values were obtained:
# Staphylococcus aureus [1] = test: Antimicrobial activity against methicillin-resistant Staphylococcus aureus N315 after 24 hrs by microbroth dilution method; assay type: functional; settings: N315, 24 h
# Staphylococcus aureus [2] = test: Antimicrobial activity against Staphylococcus aureus ATCC 25923 after 24 hrs by microbroth dilution method; assay type: functional; settings: ATCC 25923, 24 h
# Bacillus spizizenii = test: Antimicrobial activity against Bacillus subtilis ATCC 6633 after 24 hrs by microbroth dilution method; assay type: functional; settings: ATCC 6633, 24 h
# Micrococcus luteus = test: Antimicrobial activity against Micrococcus luteus ATCC 4698 after 24 hrs by microbroth dilution method; assay type: functional; settings: ATCC 4698, 24 h
# Escherichia coli [3] = test: Antimicrobial activity against Escherichia coli DH52 after 24 hrs by microbroth dilution method; assay type: functional; settings: DH52, 24 h
# Escherichia coli [4] = test: Antimicrobial activity against Escherichia coli JM109 after 24 hrs by microbroth dilution method; assay type: functional; settings: JM109, 24 h
# [5] = Antimicrobial activity against Bacillus proteus ATCC 13315 after 24 hrs by microbroth dilution method; assay type: functional; settings: ATCC 13315, 24 h
# Salmonella typhi = test: Antimicrobial activity against Bacillus typhi after 24 hrs by microbroth dilution method; assay type: functional, Salmonella enterica subsp. enterica serovar Typhi; settings: Salmonella enterica
# Candida albicans = test: Antimicrobial activity against Candida albicans ATCC 10231 after 24 hrs by microbroth dilution method; assay type: functional; settings: ATCC 10231, 24 h
# Candida = test: Antimicrobial activity against Candida mycoderma ATCC 9888 after 24 hrs by microbroth dilution method; assay type: functional; settings: ATCC 9888, 24 h
# Saccharomyces cerevisiae = test: Antimicrobial activity against Saccharomyces cerevisiae after 24 hrs by microbroth dilution method; assay type: functional
# Aspergillus flavus = test: Antimicrobial activity against Aspergillus flavus ATCC 204304 after 24 hrs by microbroth dilution method; assay type: functional; settings: ATCC 204304, 24 h
SMILES,MIC (Staphylococcus aureus [1]),MIC (Staphylococcus aureus [2]),MIC (Bacillus spizizenii),MIC (Micrococcus luteus),MIC (Escherichia coli [3]),MIC (Escherichia coli [4]),MIC [5],MIC (Salmonella typhi),MIC (Candida albicans),MIC (Candida),MIC (Saccharomyces cerevisiae),MIC (Aspergillus flavus)
O=c1c(F)cn(Cc2nc3ccccc3n2Cc2cccc(Cl)c2)c(=O)n1Cc1cccc(Cl)c1,128 µg/mL,512 µg/mL,64 µg/mL,128 µg/mL,16 µg/mL,128 µg/mL,64 µg/mL,64 µg/mL,64 µg/mL,64 µg/mL,64 µg/mL,64 µg/mL
O=c1c(F)cn(Cc2nc3ccccc3n2Cc2ccccc2Cl)c(=O)n1Cc1ccccc1Cl,> 512 µg/mL,> 512 µg/mL,> 512 µg/mL,> 512 µg/mL,> 512 µg/mL,> 512 µg/mL,> 512 µg/mL,512 µg/mL,512 µg/mL,512 µg/mL,> 512 µg/mL,512 µg/mL
O=c1[nH]c(=O)n(Cc2nc3ccccc3[nH]2)cc1F,128 µg/mL,128 µg/mL,64 µg/mL,64 µg/mL,64 µg/mL,32 µg/mL,16 µg/mL,32 µg/mL,32 µg/mL,64 µg/mL,64 µg/mL,128 µg/mL
O=c1c(F)cn(Cc2nc3ccccc3n2Cc2ccccc2F)c(=O)n1Cc1ccccc1F,512 µg/mL,16 µg/mL,128 µg/mL,512 µg/mL,128 µg/mL,128 µg/mL,512 µg/mL,512 µg/mL,> 512 µg/mL,512 µg/mL,128 µg/mL,> 512 µg/mL
Cc1ccc(Cn2c(=O)c(F)cn(Cc3nc4ccccc4n3Cc3ccc(C)cc3)c2=O)cc1,> 512 µg/mL,> 512 µg/mL,> 512 µg/mL,> 512 µg/mL,128 µg/mL,> 512 µg/mL,> 512 µg/mL,512 µg/mL,> 512 µg/mL,> 512 µg/mL,> 512 µg/mL,> 512 µg/mL
OC(Cn1cncn1)(Cn1cncn1)c1ccc(F)cc1F [FLUCONAZOLE],–,–,–,–,–,–,–,–,1 µg/mL,4 µg/mL,16 µg/mL,256 µg/mL
CCCCCCCCCCCCn1c(Cn2cc(F)c(=O)[nH]c2=O)nc2ccccc21,> 512 µg/mL,> 512 µg/mL,> 512 µg/mL,> 512 µg/mL,> 512 µg/mL,> 512 µg/mL,> 512 µg/mL,> 512 µg/mL,> 512 µg/mL,512 µg/mL,64 µg/mL,> 512 µg/mL
CCn1c(=O)c(F)cn(Cc2nc3ccccc3n2CC)c1=O,64 µg/mL,32 µg/mL,32 µg/mL,32 µg/mL,32 µg/mL,16 µg/mL,32 µg/mL,64 µg/mL,64 µg/mL,32 µg/mL,32 µg/mL,64 µg/mL
CCCCCn1c(=O)c(F)cn(Cc2nc3ccccc3n2CCCCC)c1=O,16 µg/mL,16 µg/mL,512 µg/mL,32 µg/mL,512 µg/mL,16 µg/mL,8 µg/mL,512 µg/mL,> 512 µg/mL,8 µg/mL,8 µg/mL,> 512 µg/mL
CCCn1c(Cn2cc(F)c(=O)[nH]c2=O)nc2ccccc21,16 µg/mL,16 µg/mL,16 µg/mL,16 µg/mL,64 µg/mL,64 µg/mL,64 µg/mL,64 µg/mL,2 µg/mL,16 µg/mL,8 µg/mL,32 µg/mL
O=c1c(F)cn(Cc2nc3ccccc3n2Cc2ccccc2)c(=O)n1Cc1ccccc1,> 512 µg/mL,> 512 µg/mL,64 µg/mL,128 µg/mL,> 512 µg/mL,> 512 µg/mL,> 512 µg/mL,128 µg/mL,128 µg/mL,128 µg/mL,> 512 µg/mL,64 µg/mL
CCCCCCCCn1c(Cn2cc(F)c(=O)[nH]c2=O)nc2ccccc21,512 µg/mL,512 µg/mL,512 µg/mL,512 µg/mL,64 µg/mL,256 µg/mL,512 µg/mL,512 µg/mL,32 µg/mL,64 µg/mL,32 µg/mL,32 µg/mL
COc1ccc(Cn2c(=O)c(F)cn(Cc3nc4ccccc4n3Cc3ccc(OC)cc3)c2=O)cc1,32 µg/mL,128 µg/mL,64 µg/mL,64 µg/mL,128 µg/mL,16 µg/mL,32 µg/mL,64 µg/mL,64 µg/mL,512 µg/mL,64 µg/mL,32 µg/mL
O=c1c(F)cn(Cc2nc3ccccc3n2Cc2ccc(F)cc2)c(=O)n1Cc1ccc(F)cc1,512 µg/mL,> 512 µg/mL,> 512 µg/mL,> 512 µg/mL,> 512 µg/mL,> 512 µg/mL,> 512 µg/mL,512 µg/mL,> 512 µg/mL,> 512 µg/mL,> 512 µg/mL,512 µg/mL
CCCCCCCCCCCCn1c(=O)c(F)cn(Cc2nc3ccccc3n2CCCCCCCCCCCC)c1=O,> 512 µg/mL,> 512 µg/mL,512 µg/mL,512 µg/mL,512 µg/mL,256 µg/mL,512 µg/mL,512 µg/mL,256 µg/mL,32 µg/mL,> 512 µg/mL,512 µg/mL
CCCn1c(=O)c(F)cn(Cc2nc3ccccc3n2CCC)c1=O,64 µg/mL,32 µg/mL,64 µg/mL,32 µg/mL,32 µg/mL,16 µg/mL,128 µg/mL,64 µg/mL,64 µg/mL,32 µg/mL,128 µg/mL,64 µg/mL
CCCCCCCCn1c(=O)c(F)cn(Cc2nc3ccccc3n2CCCCCCCC)c1=O,> 512 µg/mL,> 512 µg/mL,512 µg/mL,512 µg/mL,512 µg/mL,512 µg/mL,> 512 µg/mL,512 µg/mL,64 µg/mL,512 µg/mL,> 512 µg/mL,512 µg/mL
CCn1cc(C(=O)O)c(=O)c2cc(F)c(N3CCNCC3)cc21 [NORFLOXACIN],8 µg/mL,2 µg/mL,4 µg/mL,2 µg/mL,1 µg/mL,1 µg/mL,8 µg/mL,4 µg/mL,–,–,–,–
